The assay deals with L1210 leukemia ip in BDF1 mice, survival T/C. The experiment in a line: NCI In Vivo Anticancer Drug Screen. Data for tumor model L1210 Leukemia (intraperitoneal) in B6D2F1 (BDF1) mice. To be noted: endpoint: mean survival time, higher = longer survival. The essentials: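 Read-out is survival time, reported as the treated-group measurement over the vehicle-control measurement.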

Setting [1] is: dose: 100.0 mg/kg/injection, schedule: Q04DX003 (ip), vehicle: Klucel (hydroxypropylcellulose) (HPC).
Setting [2] is: dose: 200.0 mg/kg/injection, schedule: Q04DX003 (ip), vehicle: Klucel (hydroxypropylcellulose) (HPC).
[3] abbreviates: dose: 400.0 mg/kg/injection, schedule: Q04DX003 (ip), vehicle: Klucel (hydroxypropylcellulose) (HPC).
The mark [4] stands for this setting: dose: 50.0 mg/kg/injection, schedule: Q04DX003 (ip), vehicle: saline.
Where [5] appears, read: dose: 100.0 mg/kg/injection, schedule: Q04DX003 (ip), vehicle: saline.
Setting [6] is: dose: 100.0 mg/kg/injection, schedule: Q01DX001 (ip), vehicle: saline.
Where [7] appears, read: dose: 200.0 mg/kg/injection, schedule: Q01DX001 (ip), vehicle: saline.
Setting [8] is: dose: 400.0 mg/kg/injection, schedule: Q01DX001 (ip), vehicle: saline.

Several values for one entry are separate records, joined by “and”; a condition that tells them apart may be missing. Identical values can stand only once. Inconclusive results and toxic doses are left out.

With `CS(=O)(=O)OCCN(CCOS(C)(=O)=O)c1cccc(N)c1`, the T/C runs as follows: (dose: 0.22 mg/kg/injection, schedule: Q01DX001 (ip), vehicle: saline) 105 % of control; (dose: 0.33 mg/kg/injection, schedule: Q01DX001 (ip), vehicle: saline) 105 % of control; (dose: 0.5 mg/kg/injection, schedule: Q01DX001 (ip), vehicle: saline) 97 % of control and 110 % of control; (dose: 0.75 mg/kg/injection, schedule: Q01DX001 (ip), vehicle: saline) 106 % of control; (dose: 1.0 mg/kg/injection, schedule: Q01DX001 (ip), vehicle: saline) 109 % of control; (dose: 2.0 mg/kg/injection, schedule: Q01DX001 (ip), vehicle: saline) 117 % of control. For the same compound, the T/C reads like this: (dose: 3.5 mg/kg/injection, schedule: Q01DX001 (ip), vehicle: saline) 116 % of control; (dose: 5.3 mg/kg/injection, schedule: Q01DX001 (ip), vehicle: saline) 91 % of control; (dose: 8.0 mg/kg/injection, schedule: Q01DX001 (ip), vehicle: saline) 209 % of control and 86 % of control.

`Cc1nc(N)[nH]c(=O)c1CCCNc1ccc(CCC(=O)CCl)cc1`: the T/C runs as follows: (dose: 50.0 mg/kg/injection, schedule: Q01DX Z (ip), vehicle: carboxymethylcellulose (CMC)) 94 % of control; (dose: 100.0 mg/kg/injection, schedule: Q01DX Z (ip), vehicle: carboxymethylcellulose (CMC)) 94 % of control; (dose: 200.0 mg/kg/injection, schedule: Q01DX Z (ip), vehicle: carboxymethylcellulose (CMC)) 86 % of control.

As to `O=C(Nc1ccc(Cl)cc1)c1cccc([N+](=O)[O-])c1O`, the T/C was 102 % of control (dose: 6.25 mg/kg/injection, schedule: Q01DX009 (ip), vehicle: Klucel (hydroxypropylcellulose) (HPC)); 106 % of control (dose: 12.5 mg/kg/injection, schedule: Q01DX009 (ip), vehicle: Klucel (hydroxypropylcellulose) (HPC)); 95 % of control (dose: 25.0 mg/kg/injection, schedule: Q01DX009 (ip), vehicle: Klucel (hydroxypropylcellulose) (HPC)).

Consider `COC1=NS(=O)(=O)N=C(C)O1`, for which the T/C is, setting by setting: under setting [1], 91 % of control; under setting [2], 102 % of control; under setting [3], 93 % of control.

`c1cc[c]([Sb]([S]c2ncnc3nc[nH]c23)[c]2ccccc2)cc1`: the T/C (dose: 5.0 mg/kg/injection, schedule: Q01DX001 (ip), vehicle: other) was 97 % of control and the T/C (dose: 10.0 mg/kg/injection, schedule: Q01DX001 (ip), vehicle: other) was 116 % of control.

As for `NC(N)=N/N=C/C(Cl)Cl`, the T/C was 103 % of control (dose: 15.0 mg/kg/injection, schedule: Q01DX Z (ip), vehicle: carboxymethylcellulose (CMC)); 100 % of control (dose: 25.0 mg/kg/injection, schedule: Q01DX009 (ip), vehicle: saline with Tween-80); 97 % of control (dose: 30.0 mg/kg/injection, schedule: Q01DX Z (ip), vehicle: carboxymethylcellulose (CMC)); 92 % of control (dose: 30.0 mg/kg/injection, schedule: Q01DX Z (oral), vehicle: carboxymethylcellulose (CMC)); 113 % of control (dose: 37.0 mg/kg/injection, schedule: Q01DX Z (oral), vehicle: carboxymethylcellulose (CMC)); 103 % of control (dose: 50.0 mg/kg/injection, schedule: Q01DX009 (ip), vehicle: saline with Tween-80). For the same compound, the T/C under setting [4] was 98 % of control; the T/C (dose: 60.0 mg/kg/injection, schedule: Q01DX Z (ip), vehicle: carboxymethylcellulose (CMC)) is 111 % of control; the T/C (dose: 60.0 mg/kg/injection, schedule: Q01DX Z (oral), vehicle: carboxymethylcellulose (CMC)) was 121 % of control; the T/C (dose: 75.0 mg/kg/injection, schedule: Q01DX001 (oral), vehicle: carboxymethylcellulose (CMC)) was 113 % of control; the T/C (dose: 75.0 mg/kg/injection, schedule: Q01DX Z (oral), vehicle: carboxymethylcellulose (CMC)) is 107 % of control; the T/C (dose: 100.0 mg/kg/injection, schedule: Q01DX009 (ip), vehicle: saline with Tween-80) is 121 % of control. Besides, the T/C is 102 % of control under setting [5]; 104 % of control (dose: 150.0 mg/kg/injection, schedule: Q01DX001 (oral), vehicle: carboxymethylcellulose (CMC)); 104 % of control (dose: 300.0 mg/kg/injection, schedule: Q01DX001 (oral), vehicle: carboxymethylcellulose (CMC)); 113 % of control (dose: 300.0 mg/kg/injection, schedule: Q01DX Z (oral), vehicle: carboxymethylcellulose (CMC)); 117 % of control (dose: 600.0 mg/kg/injection, schedule: Q01DX001 (oral), vehicle: carboxymethylcellulose (CMC)).

On to `c1ccc(CNc2cnccn2)cc1`, for which the T/C under setting [6] is 105 % of control and the T/C under setting [7] is 105 % of control.

Take `CCN1CC(=O)N(C)C1=S`: the T/C reads like this: (dose: 50.0 mg/kg/injection, schedule: Q01DX001 (ip), vehicle: carboxymethylcellulose (CMC)) 103 % of control; (dose: 100.0 mg/kg/injection, schedule: Q01DX001 (ip), vehicle: carboxymethylcellulose (CMC)) 100 % of control; (dose: 200.0 mg/kg/injection, schedule: Q01DX001 (ip), vehicle: carboxymethylcellulose (CMC)) 97 % of control; (dose: 400.0 mg/kg/injection, schedule: Q01DX001 (ip), vehicle: carboxymethylcellulose (CMC)) 118 % of control.

Take `O=[N+]([O-])c1ccc(C(Cl)S(=O)(=O)c2ccccc2)cc1` (stereo not drawn): the T/C runs as follows: (dose: 50.0 mg/kg/injection, schedule: Q01DX001 (ip), vehicle: saline) 100 % of control; (dose: 50.0 mg/kg/injection, schedule: Q01DX009 (ip), vehicle: Klucel (hydroxypropylcellulose) (HPC)) 103 % of control; (dose: 50.0 mg/kg/injection, schedule: Q04DX003 (ip), vehicle: Klucel (hydroxypropylcellulose) (HPC)) 99 % of control; under setting [6], 108 % of control; (dose: 100.0 mg/kg/injection, schedule: Q01DX009 (ip), vehicle: Klucel (hydroxypropylcellulose) (HPC)) 92 % of control; (dose: 100.0 mg/kg/injection, schedule: Q04DX002 (ip), vehicle: Klucel (hydroxypropylcellulose) (HPC)) 93 % of control and 100 % of control. The T/C is, setting by setting: under setting [1], 111 % of control; (dose: 119.0 mg/kg/injection, schedule: Q01DX001 (ip), vehicle: Klucel (hydroxypropylcellulose) (HPC)) 105 % of control; (dose: 178.0 mg/kg/injection, schedule: Q01DX001 (ip), vehicle: Klucel (hydroxypropylcellulose) (HPC)) 100 % of control; under setting [7], 97 % of control; (dose: 200.0 mg/kg/injection, schedule: Q01DX009 (ip), vehicle: Klucel (hydroxypropylcellulose) (HPC)) 97 % of control; (dose: 200.0 mg/kg/injection, schedule: Q04DX002 (ip), vehicle: Klucel (hydroxypropylcellulose) (HPC)) 100 % of control. Besides, the T/C reads like this: under setting [2], 107 % of control; (dose: 266.0 mg/kg/injection, schedule: Q01DX001 (ip), vehicle: Klucel (hydroxypropylcellulose) (HPC)) 100 % of control; (dose: 400.0 mg/kg/injection, schedule: Q01DX001 (ip), vehicle: Klucel (hydroxypropylcellulose) (HPC)) 97 % of control; under setting [8], 95 % of control; (dose: 400.0 mg/kg/injection, schedule: Q01DX009 (ip), vehicle: Klucel (hydroxypropylcellulose) (HPC)) 92 % of control; under setting [3], 101 % of control. For the same compound, the T/C was 94 % of control (dose: 600.0 mg/kg/injection, schedule: Q01DX001 (ip), vehicle: Klucel (hydroxypropylcellulose) (HPC)) and 100 % of control (dose: 600.0 mg/kg/injection, schedule: Q04DX002 (ip), vehicle: Klucel (hydroxypropylcellulose) (HPC)).

As for `O=Nc1c(N=O)c(N=O)c(N=O)c(N=O)c1N=O`, the T/C by setting is: (dose: 1.0 mg/kg/injection, schedule: Q01DX015 (ip), vehicle: carboxymethylcellulose (CMC)) 101 % of control; (dose: 2.0 mg/kg/injection, schedule: Q01DX015 (ip), vehicle: carboxymethylcellulose (CMC)) 92 % of control; (dose: 4.0 mg/kg/injection, schedule: Q01DX015 (ip), vehicle: carboxymethylcellulose (CMC)) 102 % of control; (dose: 8.0 mg/kg/injection, schedule: Q01DX015 (ip), vehicle: carboxymethylcellulose (CMC)) 91 % of control; (dose: 25.0 mg/kg/injection, schedule: Q04DX003 (ip), vehicle: saline) 101 % of control; under setting [4], 90 % of control. Further, the T/C under setting [6] is 107 % of control, the T/C under setting [5] is 90 % of control, the T/C under setting [7] was 100 % of control and the T/C under setting [8] is 100 % of control.

The values are drawn from PubChem BioAssay AID248 (DTP/NCI, 2004).
